In patent US5488049A, “Method of treating learning and memory disorders using benzothiadiazide derivatives as nootropic agents” (FIDIA - Georgetown Institute for the Neuro-Sciences, priority 1993, dated 1996):
“Also recorded” adds a separate entry of the source.

Legend:
AMPA receptor [1] = experiment: Fast application with double barrel pipette: AMPA receptor desensitization in outside-out patches from CAl hippocampal pyramidal neurons; format: cell-based, rat
Method: Young rats (12-16 days old) were decapitated and the brains quickly removed and placed in ice-cold Ringer solution. Thin slices of hippocampus (250 μm) were then cut with a vibratome slicer (Lancer, St. Louis, Mo.) and kept in Ringer solution at 37° C. until use. The experiments were carried out at room temperature with the slice totally submerged in a 1 ml volume recording chamber and under continuous perfusion with Ringer solution at a rate of 6 ml/min using an upright Hoffman modulation contrast microscope (Carl Zeiss, Germany) equipped with a 40×water immersion objective.
(§1) Media and drug application. The external Ringer solution contained (in mM): NaCl 120; KCl 3.1; CaCl2 2; MgCl2 1; KH2 PO4 1; NaHCO3 26; glucose 2.7; and it was continuously bubbled with 95% O2 and 5% CO2. Patch pipettes were filled with a solution containing (in mM): K-gluconate 140; MgCl2 1; ATP.Mg 2; EGTA 0.5; HEPES-KOH 10, pH 7.2. All the drugs under investigation were applied through the recording chamber perfusion system via parallel inputs having a common entry into the chamber. Agonist application was attained using two different systems that allowed a slow or a rapid solution change. Slow solution changes were used during recordings in whole-cell configuration and were obtained by exchanging the solution of the recording chamber within a few seconds. Fast solution changes were obtained with the use of the Y-shaped tubing method that allows complete exchange of solution in less than 10 ms, and is described in detail by Murase et al. (1989).
Briefly, a polyethylene tubing (1 mm i.d.) is bent in a U-shaped, and another fine polyethylene tubing (50 μi.d.) and 10 mm length) is inserted into a small hole in the U-tubing making the tip of the Y-tubing. Solutions are fed to the Y-tubing by gravity, and negative pressure facilitates exchange of the solution. The tip of the Y-tubing is positioned 100 μm from the cell investigated, and upon opening and closing of a valve that controls the negative pressure, it was possible to respectively change rapidly and apply a number of different test solutions. This method was used to apply agonists to excised outside-out membrane patches. More rapid drug applications were used to apply agonists to excised outside-out membrane patches, and were obtained through a double-barrelled pipette positioned close to the recording pipette containing the membrane patch. […] The agonist was applied for a period of 150 ms and the time necessary for a complete exchange of the solution was less than 1 ms as measured at the opening of a patch pipette containing different dilutions of the drugs under study. […]
Ionic currents in whole-cell configuration and outside-out excised membrane patches were monitored using the patch clamp technique (15). […]

AMPA receptor [2] = experiment: Fast application with Y-tubing: dose-response on desensitization of glutamate current in outside-out patches from CAl pyramidal neurons; format: cell-based, rat; settings: increasing doses, 5 μM MK-801
Description: as §1, with “Fast solution changes were obtained with the use of the Y-shaped tubing method that allows complete exchange of solution in less than 10 ms, and is described in detail by Murase et al. (1989).” left out
Briefly, a polyethylene tubing (1 mm i.d.) is bent in a U-shaped, and another fine polyethylene tubing (50 μi.d.) and 10 mm length) is inserted into a small hole in the U-tubing making the tip of the Y-tubing. […] The agonist was applied for a period of 150 ms and the time necessary for a complete exchange of the solution was less than 1 ms as measured at the opening of a patch pipette containing different dilutions of the drugs under study. […]
Dose-response studies were performed with the Y-tubing system, and analyzed with sigmoid interpolation (Graphpad Academic Press). […]

rats = experiment: Water maze: drug action on alprazolam-disrupted learning behavior in rats; format: in vivo, rat; settings: IDRA 21 10 mg/kg os, 30 min pretreatment; alprazolam 1.5 mg/kg i.p.
Method: Rats (male 250 g b.w.) were trained two days, once a day, in maze A (See insert A). […] Rats were exposed to a new maze configuration (Maze B) in 4 successive trials 15, 30, 45, and 60 min after the i.p. injections.
The water maze apparatus was adapted from Kant et al., (16), and consists of three concentric squares placed inside a 5 ft plastic pool (FIG. 6). The walls of the maze are 50 cm in height and are constructed from black opaque plastic to allow for tracking of the animal with an overhead camera. The alleys between the walls are 16 cm wide. In the center of each wall there is a removable doorway. The opening of doorways allows for the construction of mazes with an increasing number of potential error possibilities. (See diagram for Maze A and Maze B, FIG. 6). The maze is located in a room 10'×15' at constant temperature (18° C.) adjacent to the vivarium. The room is illuminated with overhead lights which also serve as spatial cues. Additional spatial cues are provided by the position of the investigator and a number of small white x's placed within specific locations upon the walls of the maze. The maze is filled with water (18°)C. to a depth of 25 cm.
Seven days prior to drug studies, rats were tested in Maze A (forced maze) on two consecutive days. Pretesting with the "forced" maze enabled the assessment of the animals' general motor, sensory and motivational abilities, and facilitated the exclusion of those animals unable to meet pretesting criteria. Performance was assessed by determining either swim time, errors committed, or path length measured with a computerized recording device. Errors are defined as whole body entry into alleys not leading directly to the exit platform (i.e., shaded portions in FIG. 6). Rats were excluded from the study if their swim path length and/or number of errors were two standard deviations above the mean […] of the entire group. During the first two trials, the rats were placed into the center of the maze and given a maximum of 180 secs to find the "exit platform" located at the "finish" (FIG. 6). The time required, the number of errors, and the path length were recorded for each trial. […] Rats meeting the criteria were randomly divided into groups. On the day of the experiment, a single trial was run (Maze A) in order to establish a baseline of performance. Following drug administration, the rats were again tested once on Maze A to establish a baseline of post-treatment performance. Following an additional interatrial interval of 30 min., the rats were tested on Maze B.
In these experiments, rats were trained in Maze B 15, 30, 45 and 60 min. after drug injection.

Question: How did the “removal of glutamate-induced desensitization” value (AMPA receptor [1]; 1 mM IDRA 21, double barrel, outside-out patches, 4 of 5 patches) turn out when `CC1Nc2ccc(Cl)cc2S(=O)(=O)N1` (racemic) [IDRA 21, 7-chloro-3-methyl-3,4-dihydro-2H 1,2,4-benzothiadiazine S-S dioxide] was run?
Answer: completely removed the desensitization induced by glutamate in 4 of 5 patches tested

Question: And the “desensitization of AMPA/Kainate receptors (summary)” value (AMPA receptor [1]; summary statement)?
Answer: reduction in the desensitization of AMPA/Kainate receptors

Question: And the “desensitization of current activated by 100 μM glutamate” value (AMPA receptor [2])?
Answer: decreased by increasing doses

Question: What about the “antagonism of alprazolam amnesic effect” value (rats) of the same molecule?
Answer: reduces the amnesic effect of alprazolam; also recorded: attenuates the learning disruptive effect of Alprazolam
